TGI and GI50 data for 2 molecules are collected here from PubChem BioAssay (NCI).

Values joined by “and” are separate entries in the source; they are usually repeats but may differ in a detail not shown here. Equal entries are not always repeated.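 Exposure lasted 48 hours, with cells grown in 96-well plates and compounds tested at five concentrations. GI50 = concentration required for 50% inhibition of growth. TGI denotes the concentration required for complete inhibition of growth.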

Among the test systems are A498 renal; COLO 205 colon; DMS 114 small cell lung; DMS 273 small cell lung; M14 melanoma; M19-MEL melanoma; MDA-MB-435; NCI-H460 lung; SK-OV-3 ovarian; SNB-19 CNS; NCI-H522 lung.
Test in all cases: NCI tumour cell line growth inhibition, 48 h

`N#CC1C[C@@H]2CC3(CCC2CN1C(=O)c1ccccc1)OCCO3` (some centres not stated): the TGI with A498 renal, with COLO 205 colon, in the test on DMS 114 small cell lung, in the test on DMS 273 small cell lung, in the test on M14 melanoma and in the test on M19-MEL melanoma was over 100 µM each time. Also, the TGI in the test on MDA-MB-435, in the test on NCI-H460 lung, with SK-OV-3 ovarian and with SNB-19 CNS was over 100 µM throughout. The GI50 in the test with MDA-MB-435 is over 100 µM.

For the molecule `C/C(=N\NC(=S)N1CCN(c2ccccn2)CC1)c1ccccn1`, the GI50 in the test with A498 renal is 1.67 µM; in the test on M14 melanoma, 0.0852 µM; in the test with NCI-H460 lung, 0.0102 µM; in the test with NCI-H522 lung, 0.179 µM; in the test with SK-OV-3 ovarian, 0.198 µM; with SNB-19 CNS, 0.183 µM. Besides, the TGI is 15 µM with A498 renal; 0.335 µM and 0.103 µM with DMS 114 small cell lung; 15 µM in the test on DMS 273 small cell lung; 8.06 µM in the test on M14 melanoma; 2.94 µM with M19-MEL melanoma; 12.3 µM in the test with MDA-MB-435. Moreover, the TGI in the test with NCI-H460 lung is 12.9 µM; with NCI-H522 lung, 0.71 µM and 2.07 µM; with SK-OV-3 ovarian, 16.2 µM; in the test on SNB-19 CNS, 15 µM.
